The values that follow come from ChEMBL document CHEMBL4043237, “Heliotropiumides A and B, new phenolamides with N-carbamoyl putrescine moiety from Heliotropium foertherianum collected in Hawaii and their biological activities” (Bioorg Med Chem Lett, 2017).

The species entered for one experiment is Sus scrofa. Description: Displacement of [3H]MLA from alpha7* nAChR in pig adrenal membranes. Type of experiment: cell membranes. (In a radioligand displacement assay an active substance lowers the binding of a labelled ligand.)
A further experiment relates to Escherichia coli. Description: Antibacterial activity against Escherichia coli. Type of experiment: functional.
In a further experiment the test system is Penicillium chrysogenum. Put plainly: Antifungal activity against Penicillium chrysogenum. Type of experiment: functional.
The next experiment has as its system Staphylococcus aureus. Description: Antibacterial activity against Staphylococcus aureus. Type of experiment: functional.
Another experiment deals with Bacillus subtilis. Description: Antibacterial activity against Bacillus subtilis. Type of experiment: functional.
The test system of a further experiment is A2780. Description: Cytotoxicity against human A2780 cells assessed as reduction in cell viability at 20 ug/ml after 72 hrs by CyQuant dye based assay. Type of experiment: functional.
The subject of another experiment is Fusarium graminearum. Description: Antifungal activity against Fusarium graminearum. Type of experiment: functional.
In experiment [1] the target is Neuronal acetylcholine receptor; alpha3/beta4 (Rattus norvegicus) (UniProt P04757+P12392). Description: Displacement of [3H]epibatidine from alpha3beta4* nAChR in Sprague-Dawley rat forebrain membranes. Particulars: Membrane.
The subject of the next experiment is Tetronarce californica. Put plainly: Displacement of [3H]epibatidine from (alpha1)2beta1gammadelta nAChR in Torpedo californica electroplax membranes.
The species entered for another experiment is Homo sapiens. Description: Inhibition of TNFalpha-induced NFkappaB activation in HEK293 cells at 40 uM after 6 hrs by luciferase reporter gene assay relative to control. Type of experiment: cell-based.
In the next experiment the test system is Aspergillus niger. Description: Antifungal activity against Aspergillus niger. Type of experiment: functional.
The test system of a further experiment is Pseudomonas aeruginosa. Description: Antibacterial activity against Pseudomonas aeruginosa. Type of experiment: functional.
Experiment [2] addresses Neuronal acetylcholine receptor; alpha4/beta2 (Rattus norvegicus) (UniProt P09483+P12390). Description: Displacement of [3H]epibatidine from alpha4beta2* nAChR in Sprague-Dawley rat forebrain membranes. Particulars: Membrane.
Another experiment has as its system Paecilomyces lilacinus. Description: Antifungal activity against Paecilomyces lilacinus. As to conditions: Purpureocillium lilacinum. Type of experiment: functional.
Experiment [3] in a line: Inhibition of TNFalpha-induced NFkappaB activation in HEK293 cells after 6 hrs by luciferase reporter gene assay. Type of experiment: cell-based. As to conditions: Homo sapiens, HEK293, 6 h. For orientation: A reporter such as luciferase makes a cellular process visible.

The structures appear in SMILES notation. The source made the active and inactive calls. The rule behind the calls is not given here.

For orientation: inhibition means the change of the read-out against control, counted positive when it falls. As to `COc1cc([C@H]2Oc3c(OC)cc(/C=C/C(=O)NCCCCNC(N)=O)cc3[C@@H]2CO)ccc1O`, the inhibition entry (in the experiment filed under Sus scrofa; in experiment [1]; with Tetronarce californica; in the experiment filed under Homo sapiens; in experiment [2]) was “inactive” each time. In addition, the outcome in the experiment on Escherichia coli, in the experiment with Penicillium chrysogenum, in the experiment with Staphylococcus aureus, with Bacillus subtilis, in the experiment on A2780 and in the experiment with Fusarium graminearum was inactive. Moreover, the result with Aspergillus niger, in the experiment on Pseudomonas aeruginosa and in the experiment on Paecilomyces lilacinus was inactive.

The term IC50 denotes the concentration at which inhibition is half-maximal. Higher therefore signals weaker potency. Regarding `COc1cc(/C=C/C(=O)NCCCCNC(N)=O)ccc1O`, the inhibition result (in the experiment listed under Sus scrofa; in experiment [1]; in the experiment on Tetronarce californica; in experiment [2]) was “inactive” throughout. For the same molecule, the outcome with Escherichia coli, with Penicillium chrysogenum, in the experiment with Staphylococcus aureus, in the experiment with Bacillus subtilis, in the experiment on A2780 and in the experiment with Fusarium graminearum was inactive. Further, the outcome in the experiment on Aspergillus niger, in the experiment on Pseudomonas aeruginosa and with Paecilomyces lilacinus was inactive. The same molecule yielded an IC50 in [3] of 36 µM. Also, the inhibition in the experiment filed under Homo sapiens was more than 60%.
